Source: US20220289708A1, “SUBSTITUTED N-PHENYL URACILS, SALTS THEREOF AND THEIR USE AS HERBICIDAL AGENTS” (Bayer Aktiengesellschaft, priority 2019, published 2022)

Assays:
Type in all cases: in vivo
Abutilon theophrasti [1] = experiment: Post-emergence herbicidal action; conditions: rated visually after about 3 weeks vs untreated controls
Summary of the method: (§1)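 Activity scored visually about 3 weeks post-spray against untreated plants, on a scale where 0% equals control and 100% equals dead plants. Compounds, as WP or EC with 0.5% additive in 600 l/ha water, were applied at 20 g/ha or less onto one-leaf-stage greenhouse plants sown 2–3 weeks earlier.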

Alopecurus myosuroides [2] = experiment: Post-emergence herbicidal action; conditions: rated visually after about 3 weeks vs untreated controls
Summary of the method: as §1

Amaranthus retroflexus [3] = experiment: Post-emergence herbicidal action; conditions: rated visually after about 3 weeks vs untreated controls
Summary of the method: as §1

Digitaria sanguinalis [4] = experiment: Post-emergence herbicidal action; conditions: rated visually after about 3 weeks vs untreated controls
Summary of the method: as §1

Echinochloa crus-galli [5] = experiment: Post-emergence herbicidal action; conditions: rated visually after about 3 weeks vs untreated controls
Summary of the method: as §1

Hordeum murinum = experiment: Post-emergence herbicidal action; conditions: application rate 20 g/ha
Summary of the method: as §1

Matricaria inodora [6] = experiment: Post-emergence herbicidal action; conditions: rated visually after about 3 weeks vs untreated controls
Summary of the method: as §1

Pharbitis purpurea [7] = experiment: Post-emergence herbicidal action; conditions: application rate 5 g/ha, rated visually after about 3 weeks vs untreated controls
Summary of the method: as §1

Polygonum convolvulus [8] = experiment: Post-emergence herbicidal action; conditions: application rate 5 g/ha
Summary of the method: as §1

Setaria viridis [9] = experiment: Post-emergence herbicidal action; conditions: rated visually after about 3 weeks vs untreated controls
Summary of the method: as §1

Stellaria media = experiment: Post-emergence herbicidal action; conditions: application rate 5 g/ha, rated visually after about 3 weeks vs untreated controls
Summary of the method: as §1

Veronica persica [10] = experiment: Post-emergence herbicidal action
Summary of the method: as §1

Viola tricolor [11] = experiment: Post-emergence herbicidal action; conditions: application rate 5 g/ha
Summary of the method: as §1

Oryza sativa = experiment: Post-emergence crop plant compatibility; conditions: application rate 5 g/ha
Procedure: (§2) a. Post-Emergence Herbicidal Action and Crop Plant Compatibility
(§3) Seeds of monocotyledonous and dicotyledonous weeds and crop plants were placed in sandy loam in plastic or wood-fiber pots, covered with soil and cultivated in a greenhouse under controlled growth conditions. 2 to 3 weeks after sowing, the test plants were treated at the one-leaf stage. The compounds of the invention, formulated in the form of wettable powders (WP) or as emulsion concentrates (EC), were then sprayed onto the green parts of the plants as aqueous suspension or emulsion with addition of 0.5% additive at a water application rate of 600 l/ha (converted). After the test plants had been kept in the greenhouse under optimum growth conditions for about 3 weeks, the activity of the preparations was rated visually in comparison to untreated controls. For example, 100% activity=the plants have died, 0% activity=like control plants.
(§4) Tables A16 to A19 below show the crop plant compatibilities of selected compounds of the general formula (I) according to Tables I.1 to I.36 at an application rate corresponding to 5 g/ha or 20 g/ha, which were obtained in experiments according to the experimental procedure mentioned above. Here, the observed effects on selected crop plants are stated in comparison to the untreated controls (values in %).

Avena fatua [12] = experiment: Post-emergence herbicidal action; conditions: rated visually after about 3 weeks vs untreated controls
Summary of the method: as §1

Lolium rigidum [13] = experiment: Post-emergence herbicidal action; conditions: rated visually after about 3 weeks vs untreated controls
Summary of the method: as §1

Triticum aestivum = experiment: Post-emergence crop plant compatibility; conditions: application rate 5 g/ha
Procedure: as §2, §3, §4

Abutilon theophrasti [14] = experiment: Pre-emergence herbicidal action; conditions: application rate 20 g/ha
Excerpt: (§5) B. Pre-Emergence Herbicidal Action and Crop Plant Compatibility Seeds of monocotyledonous and dicotyledonous weed plants and crop plants were placed in plastic or organic planting pots and covered with soil. The compounds of the invention, formulated in the form of wettable powders (WP) or as emulsion concentrates (EC), were then applied to the surface of the covering soil as aqueous suspension or emulsion with addition of 0.5% additive at a water application rate equivalent to 600 l/ha (converted). After the treatment, the pots were placed in a greenhouse and kept under good growth conditions for the test plants. After about 3 weeks, the effect of the preparations was scored visually in comparison with untreated controls as percentages. For example, 100% activity=the plants have died, 0% activity=like control plants. Tables B1 to B13 below show the effects of selected compounds of the general formula (I) according to Tables I.1 to I.36 on various harmful plants and at an application rate corresponding to 80 g/ha or less, which were obtained by the experimental procedure mentioned above.

Alopecurus myosuroides [15] = experiment: Pre-emergence herbicidal action; conditions: application rate 80 g/ha
Excerpt: as §5

Amaranthus retroflexus [16] = experiment: Pre-emergence herbicidal action; conditions: application rate 20 g/ha
Excerpt: as §5

Avena fatua [17] = experiment: Pre-emergence herbicidal action; conditions: application rate 80 g/ha
Excerpt: as §5

Digitaria sanguinalis [18] = experiment: Pre-emergence herbicidal action; conditions: application rate 20 g/ha
Excerpt: as §5

Echinochloa crus-galli [19] = experiment: Pre-emergence herbicidal action; conditions: application rate 20 g/ha
Excerpt: as §5

Lolium rigidum [20] = experiment: Pre-emergence herbicidal action; conditions: application rate 80 g/ha
Excerpt: as §5

Matricaria inodora [21] = experiment: Pre-emergence herbicidal action; conditions: application rate 20 g/ha
Excerpt: as §5

Pharbitis purpurea [22] = experiment: Pre-emergence herbicidal action; conditions: application rate 20 g/ha
Excerpt: as §5

Polygonum convolvulus [23] = experiment: Pre-emergence herbicidal action; conditions: application rate 20 g/ha
Excerpt: as §5

Setaria viridis [24] = experiment: Pre-emergence herbicidal action; conditions: application rate 20 g/ha
Excerpt: as §5

Veronica persica [25] = experiment: Pre-emergence herbicidal action; conditions: application rate 20 g/ha
Excerpt: as §5

Viola tricolor [26] = experiment: Pre-emergence herbicidal action; conditions: application rate 20 g/ha
Excerpt: as §5

Row | Oryza sativa (efficacy in %) (Oryza sativa) | Structure (SMILES) | Abutilon theophrasti (efficacy in %) (Abutilon theophrasti [1]; application rate 5 g/ha) | Amaranthus retroflexus (efficacy in %) (Amaranthus retroflexus [3]; application rate 5 g/ha) | Digitaria sanguinalis (efficacy in %) (Digitaria sanguinalis [4]; application rate 20 g/ha) | Hordeum murinum (efficacy in %) (Hordeum murinum) | Matricaria inodora (efficacy in %) (Matricaria inodora [6]; application rate 5 g/ha) | Pharbitis purpurea (efficacy in %) (Pharbitis purpurea [7]) | Polygonum convolvulus (efficacy in %) (Polygonum convolvulus [8]) | Setaria viridis (efficacy in %) (Setaria viridis [9]; application rate 5 g/ha) | Stellaria media (efficacy in %) (Stellaria media) | Viola tricolor (efficacy in %) (Viola tricolor [11]) | Alopecurus myosuroides (efficacy in %) (Alopecurus myosuroides [2]; application rate 5 g/ha) | Avena fatua (efficacy in %) (Avena fatua [12]; application rate 20 g/ha) | Lolium rigidum (efficacy in %) (Lolium rigidum [13]; application rate 20 g/ha) | Veronica persica (efficacy in %) (Veronica persica [10]; application rate 5 g/ha) | Digitaria sanguinalis (efficacy in %) (Digitaria sanguinalis [4]; application rate 5 g/ha) | Echinochloa crus-galli (efficacy in %) (Echinochloa crus-galli [5]; application rate 5 g/ha) | also measured
1 | 20% | Cn1c(C(F)(F)F)cc(=O)n(-c2cc(Sc3cccnc3SCC(=O)OC3COC3)c(Cl)cc2F)c1=O [I.10-115] | 100% | 100% | 100% | 80% | 90% | 100% | 100% | 100% | 100% | 100% |  |  |  |  |  |  | Alopecurus myosuroides (efficacy in %) (Alopecurus myosuroides [2]; application rate 20 g/ha): 80%; Echinochloa crus-galli (efficacy in %) (Echinochloa crus-galli [5]; application rate 20 g/ha): 100%; Veronica persica (efficacy in %) (Veronica persica [10]; application rate 20 g/ha): 100%
2 | 20% | Cn1c(C(F)(F)F)cc(=O)n(-c2cc(Sc3cccnc3SCC(=O)OCC#N)c(Cl)cc2F)c1=O [I.10-176] |  |  | 100% | 80% |  | 90% | 100% | 100% | 100% | 100% | 80% |  |  |  |  | 100% | Abutilon theophrasti (efficacy in %) (Abutilon theophrasti [1]; application rate 20 g/ha): 100%; Amaranthus retroflexus (efficacy in %) (Amaranthus retroflexus [3]; application rate 20 g/ha): 100%; Matricaria inodora (efficacy in %) (Matricaria inodora [6]; application rate 20 g/ha): 100%; Veronica persica (efficacy in %) (Veronica persica [10]; application rate 20 g/ha): 80%
3 | 0% | Cn1c(C(F)(F)F)cc(=O)n(-c2cc(Oc3cccnc3OCC(=O)OCc3ccncc3)c(Cl)cc2F)c1=O [I.15-288] | 100% | 100% |  |  | 90% | 100% |  |  |  |  |  |  |  | 100% |  | 100% | Abutilon theophrasti (efficacy in %) (Abutilon theophrasti [14]): 100%; Alopecurus myosuroides (efficacy in %) (Alopecurus myosuroides [15]): 100%; Amaranthus retroflexus (efficacy in %) (Amaranthus retroflexus [16]): 100%; Avena fatua (efficacy in %) (Avena fatua [17]): 100%; Digitaria sanguinalis (efficacy in %) (Digitaria sanguinalis [18]): 100%; Echinochloa crus-galli (efficacy in %) (Echinochloa crus-galli [19]): 80%; Lolium rigidum (efficacy in %) (Lolium rigidum [20]): 100%; Matricaria inodora (efficacy in %) (Matricaria inodora [21]): 100%; Pharbitis purpurea (efficacy in %) (Pharbitis purpurea [22]): 100%; Polygonum convolvulus (efficacy in %) (Polygonum convolvulus [23]): 100%; Setaria viridis (efficacy in %) (Setaria viridis [24]): 100%; Veronica persica (efficacy in %) (Veronica persica [25]): 100%; Viola tricolor (efficacy in %) (Viola tricolor [26]): 100%
4 | 20% | CSCCOC(=O)COc1ncccc1Oc1cc(-n2c(=O)cc(C(F)(F)F)n(C)c2=O)c(F)cc1Cl [I.15-31] | 100% | 100% |  |  | 100% | 100% |  |  |  |  |  |  |  | 100% | 100% |  | Abutilon theophrasti (efficacy in %) (Abutilon theophrasti [14]): 100%; Alopecurus myosuroides (efficacy in %) (Alopecurus myosuroides [15]): 100%; Amaranthus retroflexus (efficacy in %) (Amaranthus retroflexus [16]): 100%; Avena fatua (efficacy in %) (Avena fatua [17]): 100%; Digitaria sanguinalis (efficacy in %) (Digitaria sanguinalis [18]): 100%; Echinochloa crus-galli (efficacy in %) (Echinochloa crus-galli [19]): 100%; Lolium rigidum (efficacy in %) (Lolium rigidum [20]): 100%; Matricaria inodora (efficacy in %) (Matricaria inodora [21]): 100%; Pharbitis purpurea (efficacy in %) (Pharbitis purpurea [22]): 100%; Polygonum convolvulus (efficacy in %) (Polygonum convolvulus [23]): 100%; Setaria viridis (efficacy in %) (Setaria viridis [24]): 100%; Veronica persica (efficacy in %) (Veronica persica [25]): 100%; Viola tricolor (efficacy in %) (Viola tricolor [26]): 100%

The next lines start with the compound.

Row | Structure (SMILES) | Oryza sativa (efficacy in %) (Oryza sativa) | Abutilon theophrasti (efficacy in %) (Abutilon theophrasti [1]; application rate 5 g/ha) | Amaranthus retroflexus (efficacy in %) (Amaranthus retroflexus [3]; application rate 5 g/ha) | Digitaria sanguinalis (efficacy in %) (Digitaria sanguinalis [4]; application rate 20 g/ha) | Hordeum murinum (efficacy in %) (Hordeum murinum) | Matricaria inodora (efficacy in %) (Matricaria inodora [6]; application rate 5 g/ha) | Pharbitis purpurea (efficacy in %) (Pharbitis purpurea [7]) | Polygonum convolvulus (efficacy in %) (Polygonum convolvulus [8]) | Setaria viridis (efficacy in %) (Setaria viridis [9]; application rate 5 g/ha) | Stellaria media (efficacy in %) (Stellaria media) | Viola tricolor (efficacy in %) (Viola tricolor [11]) | Alopecurus myosuroides (efficacy in %) (Alopecurus myosuroides [2]; application rate 5 g/ha) | Avena fatua (efficacy in %) (Avena fatua [12]; application rate 20 g/ha) | Lolium rigidum (efficacy in %) (Lolium rigidum [13]; application rate 20 g/ha) | Veronica persica (efficacy in %) (Veronica persica [10]; application rate 5 g/ha) | Digitaria sanguinalis (efficacy in %) (Digitaria sanguinalis [4]; application rate 5 g/ha) | Echinochloa crus-galli (efficacy in %) (Echinochloa crus-galli [5]; application rate 5 g/ha) | also measured
5 | Cn1c(C(F)(F)F)cc(=O)n(-c2cc(Oc3cccnc3OCC(=O)OC3COC3)c(Cl)cc2F)c1=O [I.15-115] |  | 100% | 100% | 100% | 100% | 100% | 100% | 100% |  | 100% | 100% | 80% | 90% | 90% | 100% |  |  | Echinochloa crus-galli (efficacy in %) (Echinochloa crus-galli [5]; application rate 20 g/ha): 100%; Setaria viridis (efficacy in %) (Setaria viridis [9]; application rate 20 g/ha): 100%; Triticum aestivum (efficacy in %) (Triticum aestivum): 20%
6 | Cn1c(C(F)(F)F)cc(=O)n(-c2cc(Oc3cccnc3OCC(=O)OCC3CCCO3)c(Cl)cc2F)c1=O (stereo not drawn) [I.15-71] |  | 100% | 100% |  | 100% |  | 100% | 100% | 100% | 100% | 100% | 90% | 80% | 100% | 100% | 100% | 100% | Matricaria inodora (efficacy in %) (Matricaria inodora [6]; application rate 20 g/ha): 100%
7 | COCCOC(=O)COc1ncccc1Oc1cc(-n2c(=O)cc(C(F)(F)F)n(C)c2=O)c(F)cc1Cl [I.15-1] |  | 100% | 100% |  | 100% | 100% | 100% | 100% | 100% | 100% | 100% | 80% |  | 100% | 100% | 100% | 100% | Avena fatua (efficacy in %) (Avena fatua [12]; application rate 5 g/ha): 90%
8 | Cn1c(C(F)(F)F)cc(=O)n(-c2cc(Sc3cccnc3OCC(=O)OCC3CCCO3)c(Cl)cc2F)c1=O (stereo not drawn) [I.1-71] |  | 100% | 100% |  | 80% | 100% | 100% | 100% | 100% | 100% | 100% | 80% | 80% |  | 100% | 100% | 100% | Lolium rigidum (efficacy in %) (Lolium rigidum [13]; application rate 5 g/ha): 100%
